Data taken from US20230143604A1, “QW DOSING OF GIP RECEPTOR AGONIST PEPTIDE COMPOUNDS AND USES THEREOF” (TAKEDA PHARMACEUTICAL COMPANY LIMITED, priority 2020, published 2023).
Starred links: 1 amine or outer side, 2 acyl side, 3 side chain; linkers in the order of their positions; H or OH if unused. Non-standard residues stand in square brackets, D forms with d. Residues, ends and D or L forms follow the SMILES beside them. Groups on a side chain read outwards from the residue. *: point of attachment. C18 diacid = O=C(O)CCCCCCCCCCCCCCCCC(=O)*; C17 diacid = O=C(O)CCCCCCCCCCCCCCCC(=O)*; γGlu = O=C(O)[C@H](CCC(=O)[*:2])N[*:1]; NMeY = CN[C@@H](Cc1ccc(O)cc1)C(=O)O; AEEA = NCCOCCOCC(=O)O; Aib = CC(C)(N)C(=O)O

Assay: physchem
Experimental: Solubility of the GIPR peptides may be determined by dissolution in a phosphate buffer followed by quantitation using liquid chromatography, for example, High Performance Liquid Chromatogry (HPLC). An illustrative method is provided. For determination of the solubility of the GIPr agonist peptides, 3 mg of peptides are weighted out in a small glass vial. 100 μL of 200 mM Phosphate buffer pH 7.4 are added and the vial is sonicated/votexed as necessary for a maximum of 1 min. […] If insoluble material is observed in the tube the addition of 100 μL of buffer and mixing is repeated until complete dissolution.
3 mg of peptides are weighted out in a small glass vial. 100 uL of 200 mM Phosphate buffer pH 7.4 are added and the vial is sonicated/votexed as necessary for a maximum of 1 min. […] If insoluble material is observed in the tube the addition of 100 uL of buffer and mixing is repeated until complete dissolution.

[1] = pH 7.4, aqueous buffer, pH 7.4 Phosphate Buffer - Solubility, 200 mM Phosphate buffer pH 7.4
[2] = pH 7.4, solubility in phosphate buffer at pH 7.4, 200 mM phosphate buffer pH 7.4

SMILES | solubility (pH 7.4) | solubility (pH 7.4, aqueous buffer) | solubility [1] | solubility [2]
CC[C@H](C)[C@H](NC(=O)[C@H](CO)NC(=O)[C@H](Cc1ccc(O)cc1)NC(=O)[C@H](CC(=O)O)NC(=O)[C@H](CO)NC(=O)[C@@H](NC(=O)[C@H](Cc1ccccc1)NC(=O)[C@@H](NC(=O)CNC(=O)[C@H](CCC(=O)O)NC(=O)C(C)(C)NC(=O)[C@H](Cc1ccc(O)cc1)NC)[C@@H](C)O)[C@@H](C)CC)C(=O)N[C@@H](C)C(=O)N[C@@H](CC(C)C)C(=O)N[C@@H](CC(=O)O)C(=O)N[C@@H](CCCNC(=N)N)C(=O)N[C@H](C(=O)N[C@@H](Cc1c[nH]cn1)C(=O)N[C@@H](CCC(N)=O)C(=O)N[C@@H](CCC(N)=O)C(=O)N[C@@H](CC(N)=O)C(=O)N[C@@H](Cc1ccccc1)C(=O)N[C@H](C(=O)N[C@@H](CC(N)=O)C(=O)N[C@@H](Cc1c[nH]c2ccccc12)C(=O)N[C@@H](CC(C)C)C(=O)N[C@@H](CC(C)C)C(=O)N[C@@H](C)C(=O)N[C@@H](CCC(N)=O)C(=O)N[C@@H](CCCCNC(=O)COCCOCCNC(=O)COCCOCCNC(=O)CC[C@H](NC(=O)CCCCCCCCCCCCCCCCC(=O)O)C(=O)O)C(N)=O)C(C)C)[C@@H](C)CC [Compound 5] (H-[NMeY][Aib]EGTFISDYSIALDRIHQQNFVNWLLAQK([AEEA-AEEA-γGlu-C18 diacid])-NH2) | ≥ 15 mg/mL | ≥ 27 mg/mL | – | –
CC[C@H](C)[C@H](NC(=O)[C@H](CO)NC(=O)[C@H](Cc1ccc(O)cc1)NC(=O)[C@H](CC(=O)O)NC(=O)[C@H](CO)NC(=O)[C@@H](NC(=O)[C@H](Cc1ccccc1)NC(=O)[C@@H](NC(=O)CNC(=O)[C@H](CCC(=O)O)NC(=O)C(C)(C)NC(=O)[C@H](Cc1ccc(O)cc1)NC)[C@@H](C)O)[C@@H](C)CC)C(=O)N[C@@H](C)C(=O)N[C@@H](CCCCNC(=O)COCCOCCNC(=O)COCCOCCNC(=O)CC[C@H](NC(=O)CCCCCCCCCCCCCCCCC(=O)O)C(=O)O)C(=O)N[C@@H](CC(=O)O)C(=O)N[C@@H](CCCNC(=N)N)C(=O)NC(C)(C)C(=O)N[C@@H](C)C(=O)N[C@@H](CCC(N)=O)C(=O)NC(C)(C)C(=O)N[C@@H](CC(N)=O)C(=O)N[C@@H](Cc1ccccc1)C(=O)N[C@H](C(=O)N[C@@H](CC(N)=O)C(=O)N[C@@H](Cc1c[nH]c2ccccc12)C(=O)N[C@@H](CC(C)C)C(=O)N[C@@H](CC(C)C)C(=O)N[C@@H](C)C(=O)N[C@@H](CCC(N)=O)C(=O)N[C@@H](CCCCN)C(N)=O)C(C)C [Compound 6] (H-[NMeY][Aib]EGTFISDYSIAK([AEEA-AEEA-γGlu-C18 diacid])DR[Aib]AQ[Aib]NFVNWLLAQK-NH2) | – | ≥ 15 mg/mL | – | –
CC[C@H](C)[C@H](NC(=O)[C@H](CO)NC(=O)[C@H](Cc1ccc(O)cc1)NC(=O)[C@H](CC(=O)O)NC(=O)[C@H](CO)NC(=O)[C@@H](NC(=O)[C@H](Cc1ccccc1)NC(=O)[C@@H](NC(=O)CNC(=O)[C@H](CCC(=O)O)NC(=O)C(C)(C)NC(=O)[C@H](Cc1ccc(O)cc1)NC)[C@@H](C)O)[C@@H](C)CC)C(=O)N[C@@H](C)C(=O)N[C@@H](CCCCNC(=O)COCCOCCNC(=O)COCCOCCNC(=O)CC[C@H](NC(=O)CC[C@H](NC(=O)CCCCCCCCCCCCCCCC(=O)O)C(=O)O)C(=O)O)C(=O)N[C@@H](CC(=O)O)C(=O)N[C@@H](CCCNC(=N)N)C(=O)NC(C)(C)C(=O)N[C@@H](C)C(=O)N[C@@H](CCC(N)=O)C(=O)NC(C)(C)C(=O)N[C@@H](CC(N)=O)C(=O)N[C@@H](Cc1ccccc1)C(=O)N[C@H](C(=O)N[C@@H](CC(N)=O)C(=O)N[C@@H](Cc1c[nH]c2ccccc12)C(=O)N[C@@H](CC(C)C)C(=O)N[C@@H](CC(C)C)C(=O)N[C@@H](C)C(=O)N[C@@H](CCC(N)=O)C(=O)N[C@@H](CCCNC(=N)N)C(=O)O)C(C)C [Compound 7] (H-[NMeY][Aib]EGTFISDYSIAK([AEEA-AEEA-γGlu-γGlu-C17 diacid])DR[Aib]AQ[Aib]NFVNWLLAQR-OH) | ≥ 15 mg/mL | ≥ 30 mg/mL | – | –
CC[C@H](C)[C@H](NC(=O)[C@H](CO)NC(=O)[C@H](Cc1ccc(O)cc1)NC(=O)[C@H](CC(=O)O)NC(=O)[C@H](CO)NC(=O)[C@@H](NC(=O)[C@H](Cc1ccccc1)NC(=O)[C@@H](NC(=O)CNC(=O)[C@H](CCC(=O)O)NC(=O)C(C)(C)NC(=O)[C@H](Cc1ccc(O)cc1)NC)[C@@H](C)O)[C@@H](C)CC)C(=O)N[C@@H](C)C(=O)N[C@@H](CC(C)C)C(=O)N[C@@H](CC(=O)O)C(=O)N[C@@H](CCCNC(=N)N)C(=O)NC(C)(C)C(=O)N[C@@H](C)C(=O)N[C@@H](CCC(N)=O)C(=O)NC(C)(C)C(=O)N[C@@H](CCCCNC(=O)COCCOCCNC(=O)COCCOCCNC(=O)CC[C@H](NC(=O)CC[C@H](NC(=O)CCCCCCCCCCCCCCCC(=O)O)C(=O)O)C(=O)O)C(=O)N[C@@H](Cc1ccccc1)C(=O)N[C@H](C(=O)N[C@@H](CC(N)=O)C(=O)N[C@@H](Cc1c[nH]c2ccccc12)C(=O)N[C@@H](CC(C)C)C(=O)N[C@@H](CC(C)C)C(=O)N[C@@H](C)C(=O)N[C@@H](CCC(N)=O)C(=O)N[C@@H](CCCNC(=N)N)C(=O)O)C(C)C [Compound 9] (H-[NMeY][Aib]EGTFISDYSIALDR[Aib]AQ[Aib]K([AEEA-AEEA-γGlu-γGlu-C17 diacid])FVNWLLAQR-OH) | ≥ 15 mg/mL | ≥ 30 mg/mL | – | –
CC[C@H](C)[C@H](NC(=O)[C@H](CO)NC(=O)[C@H](Cc1ccc(O)cc1)NC(=O)[C@H](CC(=O)O)NC(=O)[C@H](CO)NC(=O)[C@@H](NC(=O)[C@H](Cc1ccccc1)NC(=O)[C@@H](NC(=O)CNC(=O)[C@H](CCC(=O)O)NC(=O)C(C)(C)NC(=O)[C@H](Cc1ccc(O)cc1)NC)[C@@H](C)O)[C@@H](C)CC)C(=O)N[C@@H](C)C(=O)N[C@@H](CCCCNC(=O)COCCOCCNC(=O)COCCOCCNC(=O)CC[C@H](NC(=O)CCCCCCCCCCCCCCCC(=O)O)C(=O)O)C(=O)N[C@@H](CC(=O)O)C(=O)N[C@@H](CCCNC(=N)N)C(=O)NC(C)(C)C(=O)N[C@@H](C)C(=O)N[C@@H](CCC(N)=O)C(=O)NC(C)(C)C(=O)N[C@@H](CC(N)=O)C(=O)N[C@@H](Cc1ccccc1)C(=O)N[C@H](C(=O)N[C@@H](CC(N)=O)C(=O)N[C@@H](Cc1c[nH]c2ccccc12)C(=O)N[C@@H](CC(C)C)C(=O)N[C@@H](CC(C)C)C(=O)N[C@@H](C)C(=O)N[C@@H](CCC(N)=O)C(=O)N[C@@H](CO)C(=O)O)C(C)C [Compound 10] (H-[NMeY][Aib]EGTFISDYSIAK([AEEA-AEEA-γGlu-C17 diacid])DR[Aib]AQ[Aib]NFVNWLLAQS-OH) | ≥ 15 mg/mL | ≥ 30 mg/mL | – | –
CC[C@H](C)[C@H](NC(=O)[C@H](CO)NC(=O)[C@H](Cc1ccc(O)cc1)NC(=O)[C@H](CC(=O)O)NC(=O)[C@H](CO)NC(=O)[C@@H](NC(=O)[C@H](Cc1ccccc1)NC(=O)[C@@H](NC(=O)CNC(=O)[C@H](CCC(=O)O)NC(=O)C(C)(C)NC(=O)[C@H](Cc1ccc(O)cc1)NC)[C@@H](C)O)[C@@H](C)CC)C(=O)N[C@@H](C)C(=O)N[C@@H](CCCCNC(=O)CC[C@H](NC(=O)CC[C@H](NC(=O)CC[C@H](NC(=O)CCCCCCCCCCCCCCCC(=O)O)C(=O)O)C(=O)O)C(=O)O)C(=O)N[C@@H](CC(=O)O)C(=O)N[C@@H](CCCNC(=N)N)C(=O)NC(C)(C)C(=O)N[C@@H](C)C(=O)N[C@@H](CCC(N)=O)C(=O)NC(C)(C)C(=O)N[C@@H](CC(N)=O)C(=O)N[C@@H](Cc1ccccc1)C(=O)N[C@H](C(=O)N[C@@H](CC(N)=O)C(=O)N[C@@H](Cc1c[nH]c2ccccc12)C(=O)N[C@@H](CC(C)C)C(=O)N[C@@H](CC(C)C)C(=O)N[C@@H](C)C(=O)N[C@@H](CCC(N)=O)C(=O)N[C@@H](CO)C(=O)N1CCC[C@H]1C(=O)N[C@@H](CO)C(=O)N[C@@H](CO)C(=O)NCC(=O)N[C@@H](C)C(=O)N1CCC[C@H]1C(=O)N1CCC[C@H]1C(=O)N1CCC[C@H]1C(=O)N[C@@H](CO)C(N)=O)C(C)C [Compound 12] (H-[NMeY][Aib]EGTFISDYSIAK([γGlu-γGlu-γGlu-C17 diacid])DR[Aib]AQ[Aib]NFVNWLLAQSPSSGAPPPS-NH2) | – | – | ≥ 30 mg/mL | ≥ 15 mg/mL
CC[C@H](C)[C@H](NC(=O)[C@H](Cc1ccccc1)NC(=O)[C@@H](NC(=O)CNC(=O)[C@H](CCC(=O)O)NC(=O)C(C)(C)NC(=O)[C@H](Cc1ccc(O)cc1)NC)[C@@H](C)O)C(=O)N[C@@H](CO)C(=O)N[C@@H](CC(=O)O)C(=O)N[C@@H](Cc1ccc(O)cc1)C(=O)N[C@@H](CO)C(=O)N[C@H](C(=O)NC(C)(C)C(=O)N[C@@H](CCCCNC(=O)COCCOCCNC(=O)COCCOCCNC(=O)CC[C@H](NC(=O)CC[C@H](NC(=O)CCCCCCCCCCCCCCCC(=O)O)C(=O)O)C(=O)O)C(=O)N[C@@H](CC(=O)O)C(=O)N[C@@H](CCCNC(=N)N)C(=O)NC(C)(C)C(=O)N[C@@H](C)C(=O)N[C@@H](CCC(N)=O)C(=O)NC(C)(C)C(=O)N[C@@H](CC(N)=O)C(=O)N[C@@H](Cc1ccccc1)C(=O)N[C@H](C(=O)N[C@@H](CC(N)=O)C(=O)N[C@@H](Cc1c[nH]c2ccccc12)C(=O)N[C@@H](CC(C)C)C(=O)N[C@@H](CC(C)C)C(=O)N[C@@H](C)C(=O)N[C@@H](CCC(N)=O)C(=O)N[C@@H](CCCNC(=N)N)C(=O)N1CCC[C@H]1C(=O)N[C@@H](CO)C(=O)N[C@@H](CO)C(=O)NCC(=O)N[C@@H](C)C(=O)N1CCC[C@H]1C(=O)N1CCC[C@H]1C(=O)N1CCC[C@H]1C(=O)N[C@@H](CO)C(N)=O)C(C)C)[C@@H](C)CC [Compound 14] (H-[NMeY][Aib]EGTFISDYSI[Aib]K([AEEA-AEEA-γGlu-γGlu-C17 diacid])DR[Aib]AQ[Aib]NFVNWLLAQRPSSGAPPPS-NH2) | – | – | ≥ 30 mg/mL | ≥ 15 mg/mL
